{"source": "patent US20240301003A1", "about": "(NoNO Inc., priority 2021, published 2024)", "key": {"[1]": {"assay": "Pharmacokinetic analysis in rats (subcutaneous, pulmonary instillation, intravenous, intramuscular), HPLC", "method": "Rats were anaesthetized in the supine position (Isoflurane 1.5--%) and allowed to breath spontaneously in 0.5 L/min 02. The left femoral artery was cannulated for blood sampling.\nTest agents were prepared at the stablish concentration in a total volume of vehicle. Pulmonary instillation was performed by intubation with a 14G catheter connected to a 1 cc syringe and the test agent will be delivered through the catheter. Subcutaneous (SQ or SC) injection was injected into the area of the left flank, no more than 2 ml of total volume per site.\nEach dose was evaluated in 3 rats for each administration strategy. […] For the first experiment, evaluating two different administration routes (SQ and PI), blood samples were collected at 8 different timepoints: Pre and at 7 additional times (1, 2.5, 5, 10, 15, 30, 60 min) post dose (250 ul/sample).\nHPLC quantification: Plasma was separated from blood and stored at −−−80° C. until used. […] Standard curves for HPLC were generated from plasma samples spiked with known quantities of test agent."}, "[2]": {"target": "PSD95PDZ2 (Homo sapiens, UniProt P78352)", "sequence (P78352 160-246 limits assumed)": "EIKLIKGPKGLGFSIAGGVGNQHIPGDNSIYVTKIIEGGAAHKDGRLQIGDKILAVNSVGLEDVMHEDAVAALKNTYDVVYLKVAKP", "assay": "Competitive ELISA with biotinylated-NA-1", "settings": "PSD-95 domain 2, FIG. 12"}, "[3]": {"target": "T1, plasmin (Homo sapiens, UniProt P00747)", "T1 sequence (P00747 581-810 limits assumed, species assumed)": "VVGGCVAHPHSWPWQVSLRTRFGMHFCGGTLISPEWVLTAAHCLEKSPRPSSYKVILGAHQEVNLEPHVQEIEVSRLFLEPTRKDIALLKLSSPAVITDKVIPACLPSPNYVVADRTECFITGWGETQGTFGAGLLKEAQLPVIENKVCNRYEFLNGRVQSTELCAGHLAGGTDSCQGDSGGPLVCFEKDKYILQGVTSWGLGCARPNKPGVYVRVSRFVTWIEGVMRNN", "T1 sequence (P00747 97-580 partner limits assumed, species assumed)": "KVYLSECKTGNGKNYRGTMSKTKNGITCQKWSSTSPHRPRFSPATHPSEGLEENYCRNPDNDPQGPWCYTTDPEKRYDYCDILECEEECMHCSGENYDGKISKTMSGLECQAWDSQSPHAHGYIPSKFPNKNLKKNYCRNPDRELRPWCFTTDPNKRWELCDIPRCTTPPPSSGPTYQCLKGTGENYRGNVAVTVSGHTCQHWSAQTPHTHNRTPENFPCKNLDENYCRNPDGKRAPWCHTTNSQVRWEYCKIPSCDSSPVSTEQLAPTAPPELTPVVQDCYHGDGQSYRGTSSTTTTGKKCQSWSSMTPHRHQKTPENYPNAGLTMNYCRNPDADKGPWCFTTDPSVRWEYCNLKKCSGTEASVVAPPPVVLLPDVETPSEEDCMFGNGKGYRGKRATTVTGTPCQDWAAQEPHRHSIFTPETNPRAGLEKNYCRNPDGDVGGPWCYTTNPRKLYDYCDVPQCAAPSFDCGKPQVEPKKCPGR", "assay": "in vitro", "settings": "isolated enzyme plasmin"}, "[4]": {"target": "T1, plasmin", "assay": "Plasmin sensitivity: peptides in PBS challenged with 10 ug/ml plasmin, HPLC", "settings": "10 ug/mL plasmin, 45 minutes (FIG. 29)"}, "[5]": {"system": "histamine release", "assay": "Histamine release in rats, plasma histamine ELISA", "settings": "co-administration of lodoxamide (0.6 mg/kg)", "method": "Histamine levels were quantified by using commercially available histamine ELISA assay kit (Histamine ELISA-H1531-K01, Eagle Bioscience). The plates were coated with the plasma samples (50 ul/well) incubated for 60 minutes at room temperature on an orbital shaker with medium frequency. Then 100 ul of enzyme conjugate was added to the wells and incubated for 20 minutes at room temperature. […] The reaction was stopped with 100 ul H2SO4. Absorbance was determined on an ELISA plate reader at 450 nm.\nBlood samples were taken at pre-injection and at 0, 1, 2.5, 5, 10, 15, 30- and 60-minutes post dose and used for histamine levels quantification using commercially available kit."}, "[6]": {"assay": "MTD studies and renal toxicity in rats (creatinine, BUN)", "settings": "rats, addition of sodium benzoate (NA-3+SB)"}, "[7]": {"system": "plasmin", "assay": "10 ug/mL plasmin", "settings": "up to 45 minutes"}, "[8]": {"system": "plasmin", "assay": "peptides in PBS challenged with 10 ug/ml plasmin", "settings": "37 C, up to 30 minutes"}}, "note": "Where a SMILES comes first, the peptide text is derived from it. Where no end group is shown, it is not given here. [ ]: non-standard residue; d: D form.", "data": [{"compound": "CC[C@@H](C)[C@@H](NC(=O)[C@@H](CO)NC(=O)[C@@H](CO)NC(=O)[C@@H](CC(C)C)NC(=O)[C@@H](CCCCN)NC(=O)[C@@H](CCCNC(=N)N)NC(=O)[C@@H](CCCNC(=N)N)NC(=O)[C@@H](CCCNC(=N)N)NC(=O)[C@@H](CCC(N)=O)NC(=O)[C@@H](CCCNC(=N)N)NC(=O)[C@@H](CCCNC(=N)N)NC(=O)[C@@H](CCCCN)NC(=O)[C@@H](CCCCN)NC(=O)[C@@H](CCCNC(=N)N)NC(=O)CNC(=O)[C@H](N)Cc1ccc(O)cc1)C(=O)N[C@H](CCC(=O)O)C(=O)N[C@H](CO)C(=O)N[C@H](CC(=O)O)C(=O)N[C@@H](C(=O)O)C(C)C", "note": "[D-NA-1, ygrkkrrqrrrklssiesdv] (HELM PEPTIDE1{[dY].G.[dR].[dK].[dK].[dR].[dR].[dQ].[dR].[dR].[dR].[dK].[dL].[dS].[dS].[dI].[dE].[dS].[dD].[dV]}$$$$V2.0)", "values": [{"measurement": "plasma concentration and plasma exposure relative to intrapulmonary NA-1", "setting": "[1]; pulmonary instillation", "value": "higher plasma concentration and a greater plasma exposure"}, {"measurement": "AUC compared with subcutaneous NA-1", "setting": "[1]; subcutaneous 25 mg/kg", "value": "increased Cmax and AUC relative to subcutaneous NA-1 but not to the same extent"}, {"measurement": "Cmax compared with subcutaneous NA-1", "setting": "[1]; subcutaneous 25 mg/kg", "value": "increased Cmax and AUC relative to subcutaneous NA-1 but not to the same extent"}, {"measurement": "EC50 (compared between peptides)", "setting": "[2]", "value": "about ten-fold lower"}]}, {"compound": "CC[C@H](C)[C@H](NC(=O)[C@H](CO)NC(=O)[C@H](CO)NC(=O)[C@H](CC(C)C)NC(=O)[C@H](CCCCN)NC(=O)[C@@H](CCCNC(=N)N)NC(=O)[C@H](CCCNC(=N)N)NC(=O)[C@H](CCCNC(=N)N)NC(=O)[C@H](CCC(N)=O)NC(=O)[C@@H](CCCNC(=N)N)NC(=O)[C@H](CCCNC(=N)N)NC(=O)[C@H](CCCCN)NC(=O)[C@H](CCCCN)NC(=O)[C@@H](CCCNC(=N)N)NC(=O)CNC(=O)[C@@H](N)Cc1ccc(O)cc1)C(=O)N[C@@H](CCC(=O)O)C(=O)N[C@@H](CO)C(=O)N[C@@H](CC(=O)O)C(=O)N[C@H](C(=O)O)C(C)C", "note": "[NA-4.4.1] (HELM PEPTIDE1{Y.G.[dR].K.K.R.[dR].Q.R.R.[dR].K.L.S.S.I.E.S.D.V}$$$$V2.0; N-terminus and C-terminus assumed)", "values": [{"measurement": "remaining at 0.5 h, 65 ug/ml", "setting": "[3]", "value": "~100", "unit": "%"}]}, {"compound": "CC[C@H](C)[C@H](NC(=O)[C@H](CO)NC(=O)[C@H](CO)NC(=O)[C@H](CC(C)C)NC(=O)[C@H](CCCCN)NC(=O)[C@@H](CCCNC(=N)N)NC(=O)[C@H](CCCNC(=N)N)NC(=O)[C@H](CCCNC(=N)N)NC(=O)[C@@H](CCC(N)=O)NC(=O)[C@H](CCCNC(=N)N)NC(=O)[C@H](CCCNC(=N)N)NC(=O)[C@@H](CCCCN)NC(=O)[C@H](CCCCN)NC(=O)[C@H](CCCNC(=N)N)NC(=O)CNC(=O)[C@@H](N)Cc1ccc(O)cc1)C(=O)N[C@@H](CCC(=O)O)C(=O)N[C@@H](CO)C(=O)N[C@@H](CC(=O)O)C(=O)N[C@H](C(=O)O)C(C)C", "note": "[NA-411.4] (HELM PEPTIDE1{Y.G.R.K.[dK].R.R.[dQ].R.R.[dR].K.L.S.S.I.E.S.D.V}$$$$V2.0; N-terminus and C-terminus assumed)", "values": [{"measurement": "remaining at 0.5 h, 65 ug/ml", "setting": "[3]", "value": "~100", "unit": "%"}]}, {"compound": "CC[C@H](C)[C@H](NC(=O)[C@@H](CCCNC(=N)N)NC(=O)[C@H](CCCNC(=N)N)NC(=O)[C@@H](CCCNC(=N)N)NC(=O)[C@H](CCC(N)=O)NC(=O)[C@@H](CCCNC(=N)N)NC(=O)[C@@H](CCCNC(=N)N)NC(=O)[C@@H](CCCCN)NC(=O)[C@@H](CCCCN)NC(=O)[C@@H](N)CCCNC(=N)N)C(=O)N[C@@H](CCC(=O)O)C(=O)N[C@@H](CO)C(=O)N[C@@H](CC(=O)O)C(=O)N[C@H](C(=O)O)C(C)C", "note": "[NoNO 411, RkkrrQrRrIESDV] (HELM PEPTIDE1{R.[dK].[dK].[dR].[dR].Q.[dR].R.[dR].I.E.S.D.V}$$$$V2.0; N-terminus and C-terminus assumed)", "values": [{"measurement": "plasmin resistance", "setting": "[4]", "value": "resistance to plasmin"}]}, {"compound": "CC[C@H](C)[C@H](NC(=O)[C@H](CCCNC(=N)N)NC(=O)[C@@H](CCCNC(=N)N)NC(=O)[C@@H](CCCNC(=N)N)NC(=O)[C@H](CCC(N)=O)NC(=O)[C@@H](CCCNC(=N)N)NC(=O)[C@H](CCCNC(=N)N)NC(=O)[C@@H](CCCCN)NC(=O)[C@H](CCCCN)NC(=O)[C@@H](N)CCCNC(=N)N)C(=O)N[C@@H](CCC(=O)O)C(=O)N[C@@H](CO)C(=O)N[C@@H](CC(=O)O)C(=O)N[C@H](C(=O)O)C(C)C", "note": "[NoNO 414, RKkRrQrrRIESDV] (HELM PEPTIDE1{R.K.[dK].R.[dR].Q.[dR].[dR].R.I.E.S.D.V}$$$$V2.0)", "values": [{"measurement": "plasmin resistance", "setting": "[4]", "value": "resistance to plasmin"}]}, {"compound": "CC[C@H](C)[C@H](NC(=O)[C@H](CCCNC(=N)N)NC(=O)[C@H](CCCNC(=N)N)NC(=O)[C@@H](CCCNC(=N)N)NC(=O)[C@H](CCC(N)=O)NC(=O)[C@@H](CCCNC(=N)N)NC(=O)[C@H](CCCNC(=N)N)NC(=O)[C@H](CCCCN)NC(=O)[C@H](CCCCN)NC(=O)[C@H](N)CCCNC(=N)N)C(=O)N[C@@H](CCC(=O)O)C(=O)N[C@@H](CO)C(=O)N[C@@H](CC(=O)O)C(=O)N[C@H](C(=O)O)C(C)C", "note": "[NoNO 415, rKKRrQrRRIESDV] (HELM PEPTIDE1{[dR].K.K.R.[dR].Q.[dR].R.R.I.E.S.D.V}$$$$V2.0)", "values": [{"measurement": "plasmin resistance", "setting": "[4]", "value": "resistance to plasmin"}]}, {"compound": "N#Cc1cc(NC(=O)C(=O)O)c(Cl)c(NC(=O)C(=O)O)c1", "note": "[lodoxamide, 2-[2-chloro-5-cyano-3-(oxaloamino)anilino]-2-oxoacetic acid, reference compound]", "values": [{"measurement": "effect on histamine induced by D-Tat-L-2B9C at 7.6 mg/kg IV", "setting": "[5]", "value": "abrogated"}]}, {"compound": "O=C([O-])c1ccccc1.[Na+]", "note": "[sodium benzoate, reference compound]", "values": [{"measurement": "effect on creatinine and BUN levels induced by 25 mg/kg NA-3", "setting": "[6]", "value": "reduces the creatinine and BUN levels"}]}, {"compound": "RKkRrQrrRIESDV", "values": [{"measurement": "not cleaved", "setting": "[7]", "value": "no degradation observed in 45 minutes"}]}, {"compound": "RkkrrQrRrIESDV (HELM PEPTIDE1{R.[dK].[dK].[dR].[dR].Q.[dR].R.[dR].I.E.S.D.V}$$$$V2.0; N-terminus and C-terminus assumed; SMILES CC[C@H](C)[C@H](NC(=O)[C@@H](CCCNC(=N)N)NC(=O)[C@H](CCCNC(=N)N)NC(=O)[C@@H](CCCNC(=N)N)NC(=O)[C@H](CCC(N)=O)NC(=O)[C@@H](CCCNC(=N)N)NC(=O)[C@@H](CCCNC(=N)N)NC(=O)[C@@H](CCCCN)NC(=O)[C@@H](CCCCN)NC(=O)[C@@H](N)CCCNC(=N)N)C(=O)N[C@@H](CCC(=O)O)C(=O)N[C@@H](CO)C(=O)N[C@@H](CC(=O)O)C(=O)N[C@H](C(=O)O)C(C)C)", "values": [{"measurement": "not cleaved", "setting": "[7]", "value": "no degradation observed in 45 minutes"}]}, {"compound": "YGRKkRRqRRrKLSSIESDV (YGRK[dK]RR[dQ]RR[dR]KLSSIESDV)", "values": [{"measurement": "not cleaved", "setting": "[8]", "value": "essentially 100% intact peptide after 30 minutes"}]}, {"compound": "YGrKKRrQRRrKLSSIESDV (YG[dR]KKR[dR]QRR[dR]KLSSIESDV)", "values": [{"measurement": "not cleaved", "setting": "[8]", "value": "essentially 100% intact peptide after 30 minutes"}]}, {"compound": "YGrKKRrQrRRkLSSIESDV (YG[dR]KKR[dR]Q[dR]RR[dK]LSSIESDV)", "values": [{"measurement": "not cleaved", "setting": "[8]", "value": "essentially 100% intact peptide after 30 minutes"}]}, {"compound": "rKKRrQrRRIESDV", "values": [{"measurement": "not cleaved", "setting": "[7]", "value": "no degradation observed in 45 minutes"}]}]}
